For one molecule, IC50 results are on record in ChEMBL document CHEMBL2417402, “Development and therapeutic implications of selective histone deacetylase 6 inhibitors” (J Med Chem, 2013).

One may read the IC50 as the concentration that inhibits the measured activity by half.

One assay concerns the target Histone deacetylase 1 (Rattus norvegicus, UniProt Q4QQW4). In words: Inhibition of FLAG-tagged HDAC1 in rat liver extract using fluorescent small molecule as substrate.
A further assay has as its target T1, Histone deacetylase 6 (Rattus norvegicus, UniProt Q99P97).
T1 sequence (Q99P97 whole entry): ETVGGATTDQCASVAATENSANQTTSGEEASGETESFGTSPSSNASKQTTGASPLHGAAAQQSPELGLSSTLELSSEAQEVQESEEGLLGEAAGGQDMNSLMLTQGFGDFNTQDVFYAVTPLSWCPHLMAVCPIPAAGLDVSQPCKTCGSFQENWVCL
Put plainly: Inhibition of FLAG-tagged HDAC6 in rat liver extract using alpha-Ac tubulin as substrate.

Chain of Histone deacetylase 1 (Q4QQW4 whole entry): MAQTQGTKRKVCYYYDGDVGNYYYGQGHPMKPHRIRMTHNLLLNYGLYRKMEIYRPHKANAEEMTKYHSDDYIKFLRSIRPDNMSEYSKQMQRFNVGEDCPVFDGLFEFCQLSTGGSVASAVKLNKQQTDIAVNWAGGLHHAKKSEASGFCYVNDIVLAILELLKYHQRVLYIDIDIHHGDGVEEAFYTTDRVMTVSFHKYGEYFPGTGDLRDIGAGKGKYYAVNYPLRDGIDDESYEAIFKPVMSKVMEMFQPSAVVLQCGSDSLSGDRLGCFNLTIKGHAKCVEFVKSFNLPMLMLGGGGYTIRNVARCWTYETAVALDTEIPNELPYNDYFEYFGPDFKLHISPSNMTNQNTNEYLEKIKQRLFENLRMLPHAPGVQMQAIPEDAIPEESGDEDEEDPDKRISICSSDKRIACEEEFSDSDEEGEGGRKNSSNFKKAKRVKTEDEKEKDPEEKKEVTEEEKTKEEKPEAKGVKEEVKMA

Regarding `COC(=O)[C@H](Cc1ccccc1)NC(=O)CCCCCCCCC(=O)NO`, the IC50 amounted to 28.6 µM against Histone deacetylase 1 and 0.91 µM against Histone deacetylase 6.
